Laboratory results taken from ChEMBL document CHEMBL4038347, “Converting Teixobactin into a Cationic Antimicrobial Peptide (AMP)” (2017).
In brackets after ≈: the same amount, converted by molar mass. Activity calls are given as the source filed them. The rule behind the calls is not given here. Where a SMILES comes first, the peptide text is derived from it. Bridges are numbered along the chain shown (N, C = ends). [ ]: non-standard residue; d: D form. d(aIle) = CC[C@H](C)[C@@H](N)C(=O)O; dNMeF = CN[C@H](Cc1ccccc1)C(=O)O

Tests used:
Format in all cases: functional
[1] = test system: Staphylococcus aureus; test: Antibacterial activity against Staphylococcus aureus ATCC 29213 after 24 hrs by broth microdilution method
[2] = test system: Bacillus subtilis; test: Antibacterial activity against Bacillus subtilis ATCC 6051 after 24 hrs by broth microdilution method
[3] = test system: Escherichia coli; test: Antibacterial activity against Escherichia coli ATCC 25922 after 24 hrs by broth microdilution method
[4] = test system: Pseudomonas aeruginosa; test: Antibacterial activity against Pseudomonas aeruginosa ATCC 27853 after 24 hrs by broth microdilution method

Row | MIC ([1]; ATCC 29213, 24 h) [µg/mL] | MIC ([2]; ATCC 6051, 24 h) [µg/mL] | MIC ([3]; ATCC 25922, 24 h) [µg/mL] | MIC ([4]; ATCC 27853, 24 h) [µg/mL] | MIC [3] | MIC [4] | MIC [1] | MIC [2] | SMILES
1 | 4 (≈ 3.14 µM) | 1 (≈ 0.785 µM) | 32 (≈ 25.1 µM) | 64 (≈ 50.3 µM) | – | – | – | – | CC[C@H](C)[C@H](NC(=O)[C@@H](Cc1ccccc1)NC)C(=O)N[C@@H](CO)C(=O)N[C@H](CCCCN)C(=O)N[C@@H](C(=O)N[C@H](C(=O)N[C@@H](CO)C(=O)N[C@H]1C(=O)N[C@@H](CCCCN)C(=O)N[C@@H](CCCCN)C(=O)N[C@@H]([C@@H](C)CC)C(=O)O[C@H]1C)[C@@H](C)CC)[C@@H](C)CC (H-[dNMeF]IS[dK][d(aIle)]IS[dT]KKI; ester 8-C)
2 | 32 (≈ 24.1 µM) | 4 (≈ 3.01 µM) | 32 (≈ 24.1 µM) | 32 (≈ 24.1 µM) | – | – | – | – | CC[C@H](C)[C@H](NC(=O)[C@@H](Cc1ccccc1)NC)C(=O)N[C@@H](CCCCN)C(=O)N[C@H](CCCCN)C(=O)N[C@@H](C(=O)N[C@H](C(=O)N[C@@H](CCCCN)C(=O)N[C@H]1C(=O)N[C@@H](C)C(=O)N[C@@H](CCCNC(=N)N)C(=O)N[C@@H]([C@@H](C)CC)C(=O)O[C@H]1C)[C@@H](C)CC)[C@@H](C)CC
3 | 32 (≈ 26 µM) | 8 (≈ 6.5 µM) | 128 (≈ 104 µM) | 128 (≈ 104 µM) | – | – | – | – | CC[C@H](C)[C@H](NC(=O)[C@@H](Cc1ccccc1)NC)C(=O)N[C@@H](CO)C(=O)N[C@H](CCC(N)=O)C(=O)N[C@@H](C(=O)N[C@H](C(=O)N[C@@H](CN)C(=O)N[C@H]1C(=O)N[C@@H](CN)C(=O)N[C@@H](CCCCN)C(=O)N[C@@H]([C@@H](C)CC)C(=O)O[C@H]1C)[C@@H](C)CC)[C@@H](C)CC
4 | 64 (≈ 48.2 µM) | 4 (≈ 3.01 µM) | – | – | inactive | inactive | – | – | CC[C@H](C)[C@H](NC(=O)[C@@H](Cc1ccccc1)NC)C(=O)N[C@@H](CO)C(=O)N[C@H](CCC(N)=O)C(=O)N[C@@H](C(=O)N[C@H](C(=O)N[C@@H](CO)C(=O)N[C@H]1C(=O)N[C@@H](C)C(=O)N[C@@H](CC/N=C(\N(C)C)N2CCOCC2)C(=O)N[C@@H]([C@@H](C)CC)C(=O)O[C@H]1C)[C@@H](C)CC)[C@@H](C)CC
5 | 32 (≈ 24.3 µM) | 8 (≈ 6.08 µM) | 32 (≈ 24.3 µM) | 64 (≈ 48.7 µM) | – | – | – | – | CC[C@H](C)[C@H](NC(=O)[C@@H](Cc1ccccc1)NC)C(=O)N[C@@H](CCCCN)C(=O)N[C@H](CCCCN)C(=O)N[C@@H](C(=O)N[C@H](C(=O)N[C@@H](CO)C(=O)N[C@H]1C(=O)N[C@@H](CCCCN)C(=O)N[C@@H](CCCCN)C(=O)N[C@@H]([C@@H](C)CC)C(=O)O[C@H]1C)[C@@H](C)CC)[C@@H](C)CC
6 | – | – | – | – | inactive | inactive | inactive | inactive | CC[C@H](C)[C@H](NC(=O)[C@@H](CCCCN)NC)C(=O)N[C@@H](CO)C(=O)N[C@H](CCC(N)=O)C(=O)N[C@@H](C(=O)N[C@H](C(=O)N[C@@H](CO)C(=O)N[C@H]1C(=O)N[C@@H](C)C(=O)N[C@@H](CCCNC(=N)N)C(=O)N[C@@H]([C@@H](C)CC)C(=O)O[C@H]1C)[C@@H](C)CC)[C@@H](C)CC
7 | 16 (≈ 13.5 µM) | 4 (≈ 3.37 µM) | 64 (≈ 53.9 µM) | 32 (≈ 26.9 µM) | – | – | – | – | CC[C@H](C)[C@H](NC(=O)[C@@H](Cc1ccccc1)NC)C(=O)N[C@@H](CN)C(=O)N[C@H](CN)C(=O)N[C@@H](C(=O)N[C@H](C(=O)N[C@@H](CO)C(=O)N[C@H]1C(=O)N[C@@H](CN)C(=O)N[C@@H](CCCCN)C(=O)N[C@@H]([C@@H](C)CC)C(=O)O[C@H]1C)[C@@H](C)CC)[C@@H](C)CC
8 | – | 32 (≈ 24.9 µM) | – | – | inactive | inactive | inactive | – | CC[C@H](C)[C@H](NC(=O)[C@@H](Cc1ccccc1)NC)C(=O)N[C@@H](CCCCN)C(=O)N[C@H](CCC(N)=O)C(=O)N[C@@H](C(=O)N[C@H](C(=O)N[C@@H](CCCCN)C(=O)N[C@H]1C(=O)N[C@@H](C)C(=O)N[C@@H](CCCN)C(=O)N[C@@H]([C@@H](C)CC)C(=O)O[C@H]1C)[C@@H](C)CC)[C@@H](C)CC (stereo in doubt)
9 | – | – | – | – | inactive | inactive | inactive | inactive | CC[C@H](C)[C@H](NC(=O)[C@@H](Cc1ccccc1)NC)C(=O)N[C@@H](CO)C(=O)N[C@H](CCC(N)=O)C(=O)N[C@@H](C(=O)N[C@H](C(=O)N[C@@H](CO)C(=O)N[C@H]1C(=O)N[C@@H](C)C(=O)N2C[C@@H](N)C[C@H]2C(=O)N[C@@H]([C@@H](C)CC)C(=O)O[C@H]1C)[C@@H](C)CC)[C@@H](C)CC
10 | 2 (≈ 1.61 µM) | 2 (≈ 1.61 µM) | 64 (≈ 51.5 µM) | 256 (≈ 206 µM) | – | – | – | – | CC[C@H](C)[C@H](NC(=O)[C@@H](Cc1ccccc1)NC)C(=O)N[C@@H](CCCCN)C(=O)N[C@H](CCC(N)=O)C(=O)N[C@@H](C(=O)N[C@H](C(=O)N[C@@H](CO)C(=O)N[C@H]1C(=O)N[C@@H](C)C(=O)N[C@@H](CCCN)C(=O)N[C@@H]([C@@H](C)CC)C(=O)O[C@H]1C)[C@@H](C)CC)[C@@H](C)CC
11 | – | 16 (≈ 12.9 µM) | 128 (≈ 103 µM) | 128 (≈ 103 µM) | – | – | inactive | – | CC[C@H](C)[C@H](NC(=O)[C@@H](Cc1ccccc1)NC)C(=O)N[C@@H](CO)C(=O)N[C@H](CCCCN)C(=O)N[C@@H](C(=O)N[C@H](C(=O)N[C@@H](CCCCN)C(=O)N[C@H]1C(=O)N[C@@H](C)C(=O)N[C@@H](CCCN)C(=O)N[C@@H]([C@@H](C)CC)C(=O)O[C@H]1C)[C@@H](C)CC)[C@@H](C)CC
12 | 256 (≈ 195 µM) | 4 (≈ 3.04 µM) | 32 (≈ 24.3 µM) | 64 (≈ 48.7 µM) | – | – | – | – | CC[C@H](C)[C@H](NC(=O)[C@@H](Cc1ccccc1)NC)C(=O)N[C@@H](CO)C(=O)N[C@H](CCCCN)C(=O)N[C@@H](C(=O)N[C@H](C(=O)N[C@@H](CCCCN)C(=O)N[C@H]1C(=O)N[C@@H](CCCCN)C(=O)N[C@@H](CCCCN)C(=O)N[C@@H]([C@@H](C)CC)C(=O)O[C@H]1C)[C@@H](C)CC)[C@@H](C)CC (H-[dNMeF]IS[dK][d(aIle)]IK[dT]KKI; ester 8-C)
13 | 4 (≈ 3.25 µM) | 4 (≈ 3.25 µM) | 64 (≈ 52 µM) | 64 (≈ 52 µM) | – | – | – | – | CC[C@H](C)[C@H](NC(=O)[C@@H](Cc1ccccc1)NC)C(=O)N[C@@H](CN)C(=O)N[C@H](CCC(N)=O)C(=O)N[C@@H](C(=O)N[C@H](C(=O)N[C@@H](CO)C(=O)N[C@H]1C(=O)N[C@@H](CN)C(=O)N[C@@H](CCCCN)C(=O)N[C@@H]([C@@H](C)CC)C(=O)O[C@H]1C)[C@@H](C)CC)[C@@H](C)CC
14 | 64 (≈ 53.9 µM) | 16 (≈ 13.5 µM) | 64 (≈ 53.9 µM) | 64 (≈ 53.9 µM) | – | – | – | – | CC[C@H](C)[C@H](NC(=O)[C@@H](Cc1ccccc1)NC)C(=O)N[C@@H](CO)C(=O)N[C@H](CN)C(=O)N[C@@H](C(=O)N[C@H](C(=O)N[C@@H](CN)C(=O)N[C@H]1C(=O)N[C@@H](CN)C(=O)N[C@@H](CCCCN)C(=O)N[C@@H]([C@@H](C)CC)C(=O)O[C@H]1C)[C@@H](C)CC)[C@@H](C)CC
15 | 256 (≈ 189 µM) | 8 (≈ 5.9 µM) | 128 (≈ 94.4 µM) | 256 (≈ 189 µM) | – | – | – | – | CC[C@H](C)[C@H](NC(=O)[C@@H](Cc1ccccc1)NC)C(=O)N[C@@H](CCCCN)C(=O)N[C@H](CCC(N)=O)C(=O)N[C@@H](C(=O)N[C@H](C(=O)N[C@@H](CCCCN)C(=O)N[C@H]1C(=O)N[C@@H](CCCCN)C(=O)N[C@@H](CCCCN)C(=O)N[C@@H]([C@@H](C)CC)C(=O)O[C@H]1C)[C@@H](C)CC)[C@@H](C)CC

Row | SMILES | MIC ([1]; ATCC 29213, 24 h) [µg/mL] | MIC ([2]; ATCC 6051, 24 h) [µg/mL] | MIC ([3]; ATCC 25922, 24 h) [µg/mL] | MIC ([4]; ATCC 27853, 24 h) [µg/mL] | MIC [3] | MIC [4] | MIC [1] | MIC [2]
16 | CC[C@H](C)[C@H](NC(=O)[C@@H](Cc1ccccc1)NC)C(=O)N[C@@H](CO)C(=O)N[C@H](CCC(N)=O)C(=O)N[C@@H](C(=O)N[C@H](C(=O)N[C@@H](CO)C(=O)N[C@H]1C(=O)N[C@@H](C)C(=O)N[C@@H](CCCN)C(=O)N[C@@H]([C@@H](C)CC)C(=O)O[C@H]1C)[C@@H](C)CC)[C@@H](C)CC | 2 (≈ 1.66 µM) | 0.25 (≈ 0.208 µM) | 32 (≈ 26.6 µM) | 256 (≈ 213 µM) | – | – | – | –
